What follows are compounds tested against T1, N-type Ca^2+ Channel (Homo sapiens, UniProt Q00975) (assay: Measurement of N-type Ca2+ channel blocking potencies in IMR-32 cells using the fluorescent Ca2+ indicator Indo-1). Conditions: IMR-32 cells, K+ depolarization, 5 μM nitrendipine to block L-type channels; read-out: IMR 32 IC50.
T1 construct: host or cells: IMR-32 cells differentiated with dibutyryl cAMP and bromodeoxyuridine
T1 sequence (Q00975 whole entry): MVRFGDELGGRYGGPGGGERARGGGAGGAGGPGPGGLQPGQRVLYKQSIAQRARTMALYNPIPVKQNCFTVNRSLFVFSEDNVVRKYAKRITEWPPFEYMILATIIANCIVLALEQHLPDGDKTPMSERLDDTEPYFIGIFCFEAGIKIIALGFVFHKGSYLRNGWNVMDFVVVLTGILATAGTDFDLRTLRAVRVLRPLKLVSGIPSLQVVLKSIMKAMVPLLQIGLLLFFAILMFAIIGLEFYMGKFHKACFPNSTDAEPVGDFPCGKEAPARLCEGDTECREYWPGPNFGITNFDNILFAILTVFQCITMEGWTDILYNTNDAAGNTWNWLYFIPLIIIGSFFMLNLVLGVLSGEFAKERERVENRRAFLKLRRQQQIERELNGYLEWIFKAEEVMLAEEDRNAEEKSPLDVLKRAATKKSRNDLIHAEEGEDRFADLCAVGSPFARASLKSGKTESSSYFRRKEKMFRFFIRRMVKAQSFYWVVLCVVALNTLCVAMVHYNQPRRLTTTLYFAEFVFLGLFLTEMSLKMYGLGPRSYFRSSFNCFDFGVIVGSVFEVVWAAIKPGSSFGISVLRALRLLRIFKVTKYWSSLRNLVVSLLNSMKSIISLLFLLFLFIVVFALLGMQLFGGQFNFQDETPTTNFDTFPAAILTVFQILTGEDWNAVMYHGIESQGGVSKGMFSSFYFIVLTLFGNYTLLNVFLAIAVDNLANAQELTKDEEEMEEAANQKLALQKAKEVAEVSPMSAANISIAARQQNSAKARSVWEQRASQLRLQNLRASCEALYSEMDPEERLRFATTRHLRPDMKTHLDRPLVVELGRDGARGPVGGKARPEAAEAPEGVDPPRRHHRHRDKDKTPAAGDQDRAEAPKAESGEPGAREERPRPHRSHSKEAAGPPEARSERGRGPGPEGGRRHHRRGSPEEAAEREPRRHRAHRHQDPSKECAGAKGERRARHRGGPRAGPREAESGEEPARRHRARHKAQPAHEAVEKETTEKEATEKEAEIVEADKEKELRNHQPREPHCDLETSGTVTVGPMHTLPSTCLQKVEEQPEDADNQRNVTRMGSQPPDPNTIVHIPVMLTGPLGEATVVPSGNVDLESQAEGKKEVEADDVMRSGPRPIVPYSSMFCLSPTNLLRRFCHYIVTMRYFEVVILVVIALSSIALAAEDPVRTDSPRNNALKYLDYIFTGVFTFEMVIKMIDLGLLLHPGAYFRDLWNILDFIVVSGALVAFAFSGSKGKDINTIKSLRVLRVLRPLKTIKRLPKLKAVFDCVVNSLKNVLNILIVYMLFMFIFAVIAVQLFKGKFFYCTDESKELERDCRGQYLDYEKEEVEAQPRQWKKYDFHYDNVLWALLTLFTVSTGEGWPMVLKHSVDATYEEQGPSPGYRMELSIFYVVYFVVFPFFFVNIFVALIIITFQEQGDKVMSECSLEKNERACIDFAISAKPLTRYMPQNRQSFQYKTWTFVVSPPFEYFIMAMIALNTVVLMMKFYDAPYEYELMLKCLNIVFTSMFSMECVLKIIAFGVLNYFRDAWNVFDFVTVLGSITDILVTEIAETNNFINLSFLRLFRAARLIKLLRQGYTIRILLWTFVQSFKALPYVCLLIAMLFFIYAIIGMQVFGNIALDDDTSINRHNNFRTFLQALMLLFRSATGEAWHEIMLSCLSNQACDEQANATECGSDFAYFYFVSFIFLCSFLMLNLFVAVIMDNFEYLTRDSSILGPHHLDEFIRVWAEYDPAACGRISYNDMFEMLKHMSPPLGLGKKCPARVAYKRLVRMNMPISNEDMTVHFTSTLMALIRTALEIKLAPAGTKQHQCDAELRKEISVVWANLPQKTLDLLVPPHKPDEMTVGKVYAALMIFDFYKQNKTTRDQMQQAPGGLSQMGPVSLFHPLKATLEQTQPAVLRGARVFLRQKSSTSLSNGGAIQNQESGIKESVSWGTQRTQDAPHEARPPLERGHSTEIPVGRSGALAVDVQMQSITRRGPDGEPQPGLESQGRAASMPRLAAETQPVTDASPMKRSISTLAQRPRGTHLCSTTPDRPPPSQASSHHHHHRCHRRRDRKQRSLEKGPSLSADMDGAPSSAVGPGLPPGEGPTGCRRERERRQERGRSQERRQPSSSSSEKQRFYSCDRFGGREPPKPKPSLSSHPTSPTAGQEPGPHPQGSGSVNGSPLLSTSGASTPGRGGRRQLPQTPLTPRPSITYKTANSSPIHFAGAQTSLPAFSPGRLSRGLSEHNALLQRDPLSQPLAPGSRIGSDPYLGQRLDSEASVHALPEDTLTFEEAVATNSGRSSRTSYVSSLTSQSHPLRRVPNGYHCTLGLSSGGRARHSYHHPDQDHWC
T1 sequence (P54284 whole entry partner): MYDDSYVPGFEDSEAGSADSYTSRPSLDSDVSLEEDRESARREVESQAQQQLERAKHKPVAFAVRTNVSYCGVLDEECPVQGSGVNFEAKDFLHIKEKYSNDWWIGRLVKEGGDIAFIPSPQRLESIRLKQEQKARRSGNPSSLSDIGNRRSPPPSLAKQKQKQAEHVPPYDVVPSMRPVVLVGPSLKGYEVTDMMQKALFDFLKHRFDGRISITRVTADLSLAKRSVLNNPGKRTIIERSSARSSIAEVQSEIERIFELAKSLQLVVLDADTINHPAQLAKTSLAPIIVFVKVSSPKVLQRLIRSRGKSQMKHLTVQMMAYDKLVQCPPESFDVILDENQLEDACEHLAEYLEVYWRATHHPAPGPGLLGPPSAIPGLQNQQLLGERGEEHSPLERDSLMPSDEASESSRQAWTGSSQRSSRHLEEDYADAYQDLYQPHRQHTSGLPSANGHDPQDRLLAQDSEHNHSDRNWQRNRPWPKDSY
T1 sequence (P54289 25-946 partner limits assumed): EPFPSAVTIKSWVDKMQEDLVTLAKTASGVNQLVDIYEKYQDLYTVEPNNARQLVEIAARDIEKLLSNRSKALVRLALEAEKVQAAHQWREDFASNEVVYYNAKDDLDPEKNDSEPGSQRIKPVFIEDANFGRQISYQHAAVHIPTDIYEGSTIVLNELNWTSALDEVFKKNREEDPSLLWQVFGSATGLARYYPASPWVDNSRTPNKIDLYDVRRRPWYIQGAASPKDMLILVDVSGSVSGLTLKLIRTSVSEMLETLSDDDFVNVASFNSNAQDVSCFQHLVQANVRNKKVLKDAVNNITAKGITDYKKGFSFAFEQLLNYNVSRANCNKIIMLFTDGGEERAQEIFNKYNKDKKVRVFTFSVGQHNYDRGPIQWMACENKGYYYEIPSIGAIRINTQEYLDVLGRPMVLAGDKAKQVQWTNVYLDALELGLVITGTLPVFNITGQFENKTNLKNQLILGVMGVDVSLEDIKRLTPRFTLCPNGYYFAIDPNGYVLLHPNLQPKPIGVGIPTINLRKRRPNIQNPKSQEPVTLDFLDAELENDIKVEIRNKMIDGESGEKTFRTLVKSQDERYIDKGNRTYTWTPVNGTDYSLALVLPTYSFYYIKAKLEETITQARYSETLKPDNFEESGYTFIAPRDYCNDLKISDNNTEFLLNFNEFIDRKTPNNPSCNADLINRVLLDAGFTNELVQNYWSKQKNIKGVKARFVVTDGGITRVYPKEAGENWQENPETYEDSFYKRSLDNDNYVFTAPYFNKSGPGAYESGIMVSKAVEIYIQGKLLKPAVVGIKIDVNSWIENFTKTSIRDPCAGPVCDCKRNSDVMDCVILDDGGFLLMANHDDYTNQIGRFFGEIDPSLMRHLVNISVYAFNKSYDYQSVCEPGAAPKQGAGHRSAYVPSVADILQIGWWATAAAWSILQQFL
T1 sequence (P54289 947-1103 partner limits assumed): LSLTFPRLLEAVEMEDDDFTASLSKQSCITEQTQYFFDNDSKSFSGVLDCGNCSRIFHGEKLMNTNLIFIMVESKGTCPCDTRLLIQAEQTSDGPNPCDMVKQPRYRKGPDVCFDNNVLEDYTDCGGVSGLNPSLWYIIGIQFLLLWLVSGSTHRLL
Format: cell-based
Experimental: Measurement of N-type Ca^2+ Channel Blocking Potencies of Compounds in IMR-32 Cells Using the Fluorescent Ca^2 + Indicator Indo-1
IMR-32 cells are a human tumoral cell line of neural origin. […] Calcium flux into these cells may be induced by stimulation with elevated potassium concentrations. The L-channel component of calcium flux may be blocked by adding 5 μM nitrendipine. The remaining component of calcium entry into the IMR-32 cells is due to calcium flux through N-type calcium channels. Intracellular calcium concentrations are measured using the fluorescent calcium indicator Indo-1. The effect of drug concentration on calcium uptake is studied.
The IMR-32 cell line was obtained from the American Type Culture Collection (Rockville, Md.). Cells were grown in Eagle's Minimum Essential Medium with Earle's salts supplemented with 10% fetal bovine serum, 2 mM L-Gln and antibiotic/antimycotic mixture (Gibco). At approximately 80% confluency, differentiation was induced by the addition of 1 mM dibutyryl cAMP and 2.5 μM bromodeoxyuridine to the medium. After 7 to 13 days of differentiation, cells were detached using 0.5 mM EDTA and loaded with 5 μM Indo-1 acetoxymethyl ester (Molecular Probes, Eugene, Oreg.) at 30° C. for 45 minutes. Loaded cells were washed twice, resuspended (~10^7 cells/mL) in assay buffer (10 mM HEPES/Tris pH 7.4 in Hank's Balanced Salt Solution without bicarbonate or phenol red containing 0.5% bovine serum albumin) and kept on ice until use. Fluorescence measurements were carried out in a Photon Technology International (PTI, South Brunswick, N.J.) Model RF-F3004 spectrofluorometer with dual emission monochromators using excitation at 350 nm and emission at 400 and 490 nm. The instrument was equipped with a thermostated cuvette holder with stirring capabilities as well as with a computer-controlled pump which allowed for reagent addition during measurement. Instrument control and data collection was done by PTI's OSCAR software running on an IBM compatible computer. Different concentrations of the test compounds (60 μL in dimethyl sulfoxide) were added to 5.94 mL of assay buffer containing approximately 3×10^6 loaded cells, and 5 μM nitrendipine (in 30 μL EtOH) to block L-type Ca^2+ channels. Samples were incubated for 10 minutes at 30° C. and then aliquoted into three 10×10 mm disposable acrylic cuvettes. Emission signals at 400 and 490 nm were acquired from each cuvette at 30° C. for 50 seconds. At 20 seconds after the start of reading, cells were depolarized by the addition of 160 μL of stimulation solution (1 M KCl, 68 mM CaCl2) to the cuvette via the computer-controlled pump. Ratio of dual emission signals (400 nm/ 490 nm), which is proportional to intracellular Ca^2+ concentration, was plotted against time, and the difference between maximal response after stimulation and basal value (before stimulation) was determined. Values obtained in this way were plotted as a function of drug concentration. IC50 values of test compounds were calculated by fitting a four-parameter logistic function to the data using the least squares method.
`CC(C)C[C@H](NCc1ccc(C(C)(C)C)cc1)C(=O)N[C@@H](Cc1ccc(OCc2ccccc2)cc1)C(=O)N1CCN(Cc2ccccc2)CC1` (relative stereo) [Example 52, [S-(R*,R*)]-2-(4-tert-Butyl-benzylamino)-4-methyl-pentanoic acid [1-(4-benzyloxy-benzyl)-2-(4-benzyl-piperazin-1-yl)-2-oxo-ethyl]-amide] showed an IC50 of 0.77 µM.
Compound `CC(C)=CCN[C@@H](CC(C)C)C(=O)N[C@@H](Cc1ccc(OCc2ccccc2)cc1)C(=O)N1CCN(Cc2ccccc2)CC1` (relative stereo) [Example 53, [S-(R*,R*)]-4-Methyl-2-(3-methyl-but-2-enylamino)-pentanoic acid [1-(4-benzyloxy-benzyl)-2-(4-benzyl-piperazin-1-yl)-2-oxo-ethyl]-amide] has an IC50 of 0.7 µM.
`CC(C)CCN(C)[C@@H](CC(C)C)C(=O)N[C@@H](Cc1ccc(OCc2ccccc2)cc1)C(=O)NCCN1CCOCC1` (relative stereo) [Example 57, [S-(R*,R*)]-4-Methyl-2-[methyl-(3-methyl-butyl)-amino]-pentanoic acid [2-(4-benzyloxy-phenyl)-1-(2-morpholin-4-yl-ethylcarbamoyl)-ethyl]-amide] showed an IC50 of 2.1 µM.
Work on `CC(C)CCN(C)[C@@H](CC(C)C)C(=O)N[C@@H](Cc1ccc(OCc2ccccc2)cc1)C(=O)NCCc1ccccn1` (relative stereo) [Example 58, [S-(R*,R*)]-4-Methyl-2-[methyl-(3-methyl-butyl)-amino]-pentanoic acid [2-(4-benzyloxy-phenyl)-1-(2-pyridin-2-yl-ethylcarbamoyl)-ethyl]-amide] yielded an IC50 of 1 µM.
In the case of `CC(C)CCN(C)[C@@H](CC(C)C)C(=O)N[C@@H](Cc1ccc(OCc2ccccc2)cc1)C(=O)NCCCn1ccnc1` (relative stereo) [Example 59, [S-(R*,R*)]-4-Methyl-2-[methyl-(3-methyl-butyl)-amino]-pentanoic acid [2-(4-benzyloxy-phenyl)-1-(3-imidazol-1-yl-propylcarbamoyl)-ethyl]-amide], the IC50 is reported as 1.6 µM.
Work on `CC(C)CCN(C)[C@@H](CC(C)C)C(=O)N[C@@H](Cc1ccc(OCc2ccccc2)cc1)C(=O)N1CCSCC1` (relative stereo) [Example 61, [S-(R*,R*)]-4-Methyl-2-[methyl-(3-methyl-butyl)-amino]-pentanoic acid [1-(4-benzyloxy-benzyl)-2-oxo-2-thiomorpholin-4-yl-ethyl]-amide] yielded an IC50 of 0.4 µM.
Compound `CC(C)CCN(C)[C@@H](CC(C)C)C(=O)N[C@@H](Cc1ccc(OCc2ccccc2)cc1)C(=O)NC(C)(CO)CO` (relative stereo) [Example 62, [S-(R*,R*)]-4-Methyl-2-[methyl-(3-methyl-butyl)-amino]-pentanoic acid [2-(4-benzyloxy-phenyl)-1-(2-hydroxy-1-hydroxymethyl-1-methyl-ethylcarbamoyl)-ethyl]-amide] has an IC50 of 1.1 µM.
Work on `CCC(COC)NC(=O)[C@H](Cc1ccc(OCc2ccccc2)cc1)NC(=O)[C@H](CC(C)C)N(C)CCC(C)C` (relative stereo) [Example 63, [S-(R*,R*)]-4-Methyl-2-[methyl-(3-methyl-butyl)-amino]-pentanoic acid [2-(4-benzyloxy-phenyl)-1-(1-methoxymethyl-propylcarbamoyl)-ethyl]-amide] yielded an IC50 of 0.8 µM.
In the case of `CC(C)CCN(C)[C@@H](CC(C)C)C(=O)N[C@@H](Cc1ccc(OCc2ccccc2)cc1)C(=O)NCCN1CCCC1` (relative stereo) [Example 64, [S-(R*,R*)]-4-Methyl-2-[methyl-(3-methyl-butyl)-amino]-pentanoic acid [2-(4-benzyloxy-phenyl)-1-(2-pyrrolidin-1-yl-ethylcarbamoyl)-ethyl]-amide], the IC50 is reported as 2.4 µM.
For `CC(C)CCN(C)[C@@H](CC(C)C)C(=O)N[C@@H](Cc1ccc(OCc2ccccc2)cc1)C(=O)N1CCC(O)CC1` (relative stereo) [Example 65, [S-(R*,R*)]-4-Methyl-2-[methyl-(3-methyl-butyl)-amino]-pentanoic acid [1-(4-benzyloxy-benzyl)-2-(4-hydroxy-piperidin-1-yl)-2-oxo-ethyl]-amide], the IC50 was 1.1 µM.
`CC(C)CCN(C)[C@@H](CC(C)C)C(=O)N[C@@H](Cc1ccc(OCc2ccccc2)cc1)C(=O)NC1CCN(Cc2ccccc2)C1` (relative stereo) [Example 67, [S-(R*,R*)]-4-Methyl-2-[methyl-(3-methyl-butyl)-amino]-pentanoic acid [2-(4-benzyloxy-phenyl)-1-(1-benzyl-pyrrolidin-3-ylcarbamoyl)-ethyl]-amide] showed an IC50 of 0.4 µM.
With `CC(C)C[C@@H](C(=O)N[C@@H](Cc1ccc(OCc2ccccc2)cc1)C(=O)NCCNCc1ccccc1)N1CCOCC1` (relative stereo) [Example 68, [S-(R*,R*)]-4-Methyl-2-morpholin4-yl-pentanoic acid [1-(2-benzylamino-ethylcarbamoyl)-2-(4-benzyloxy-phenyl)-ethyl]-amide] the IC50 was 1.1 µM.
Work on `CC(C)C[C@@H](C(=O)N[C@@H](Cc1ccc(OCc2ccccc2)cc1)C(=O)NC1CCN(Cc2ccccc2)C1)N1CCOCC1` (relative stereo) [Example 69, [S-(R*,R*)]-4-Methyl-2-morpholin-4-yl-pentanoic acid [2-(4-benzyloxy-phenyl)-1-(1-benzyl-pyrrolidin-3-ylcarbamoyl)-ethyl]-amide] yielded an IC50 of 1.3 µM.
For `CC(C)C[C@H](NC1CCOCC1)C(=O)N[C@@H](Cc1ccc(OCc2ccccc2)cc1)C(=O)NCCNCc1ccccc1` (relative stereo) [Example 71, [S-(R*,R*)]-4-Methyl-2-(tetrahydro-pyran-4-ylamino)-pentanoic acid [1-(2-benzylamino-ethylcarbamoyl)-2-(4-benzyloxy-phenyl)-ethyl]-amide], the IC50 was 0.7 µM.
`CC(C)C[C@H](NC1CCOCC1)C(=O)N[C@@H](Cc1ccc(OCc2ccccc2)cc1)C(=O)N1CCSCC1` (relative stereo) [Example 72, [S-(R*,R*)]-4-Methyl-2-(tetrahydro-pyran-4-ylamino)-pentanoic acid [1-(4-benzyloxy-benzyl)-2-oxo-2-thiomorpholin-4-yl-ethyl]-amide] gave an IC50 of 1.2 µM.
`CCC(COC)NC(=O)[C@H](Cc1ccc(OCc2ccccc2)cc1)NC(=O)[C@H](CC(C)C)NC1CCOCC1` (relative stereo) [Example 75, [S-(R*,R*)]-4-Methyl-2-(tetrahydro-pyran-4-ylamino)-pentanoic acid [2-(4-benzyloxy-phenyl)-1-(1-methoxymethyl-propylcarbamoyl)-ethyl]-amide] showed an IC50 of 2.4 µM.
Compound `CC(C)C[C@H](NC1CCOCC1)C(=O)N[C@@H](Cc1ccc(OCc2ccccc2)cc1)C(=O)NC1CCN(Cc2ccccc2)C1` (relative stereo) [Example 76, [S-(R*,R*)]-4-Methyl-2-(tetrahydro-pyran4-ylamino)-pentanoic acid [2-(4-benzyloxy-phenyl)-1-(1-benzyl-pyrrolidin-3-ylcarbamoyl)-ethyl]-amide] has an IC50 of 0.6 µM.
With `CC(C)C[C@H](NC1CCOCC1)C(=O)N[C@@H](Cc1ccc(OCc2ccccc2)cc1)C(=O)NCCN1CCCCC1` (relative stereo) [Example 77, [S-(R*,R*)]-4-Methyl-2-(tetrahydro-pyran-4-ylamino)-pentanoic acid [2-(4-benzyloxy-phenyl)-1-(2-piperidin-1-yl-ethylcarbamoyl)-ethyl]-amide] the IC50 was 2.6 µM.
`CC(C)C[C@H](NC1CCOCC1)C(=O)N[C@@H](Cc1ccc(OCc2ccccc2)cc1)C(=O)N1CCCCC1` (relative stereo) [Example 79, [S-(R*,R*)]-4-Methyl-2-(tetrahydro-pyran-4-ylamino)-pentanoic acid [1-(4-benzyloxy-benzyl)-2-oxo-2-piperidin-1-yl-ethyl]-amide] showed an IC50 of 2.1 µM.
In the case of `CC(C)C[C@@H](C(=O)N[C@@H](Cc1ccc(OCc2ccccc2)cc1)C(=O)NC(C)(C)C)N(C)Cc1ccc(Br)cc1` (relative stereo) [Example 81, [S-(R*,R*)]-2-[(4-Bromo-benzyl)-methyl-amino]4-methyl-pentanoic acid [2-(4-benzyloxy-phenyl)-1-tert-butylcarbamoyl-ethyl]-amide], the IC50 is reported as 0.16 µM.
